Measurements as given in ChEMBL document CHEMBL1149955, “The discovery and synthesis of 2-biphenylcarbapenems active against methicillin resistant staphylococci” (1995).
In brackets after ≈: the same amount, converted by molar mass.

Legend:
Type in all cases: functional
[1] = system: Staphylococcus aureus; assay: Compound was evaluated for anti-methicillin-resistant activity against methicillin-resistant Staphylococcus aureus
[2] = system: Staphylococcus aureus; assay: Compound was evaluated for anti-methicillin-resistant activity against methicillin-resistant Staphylococcus aureus CL 1395
[3] = system: Staphylococcus aureus; assay: Compound was evaluated for anti-methicillin-resistant activity against methicillin-resistant Staphylococcus aureus CL 3033
[4] = system: Proteus; assay: Relative potency was calculated against Proteus species. (5) by dividing the species index of Imipenem by the species index of the test compound
[5] = system: Staphylococcus aureus; assay: Compound was evaluated for anti-methicillin-resistant activity against methicillin-resistant Staphylococcus aureus CL 3043
[6] = system: Staphylococcus aureus; assay: Compound was evaluated for anti-methicillin-resistant activity against methicillin-resistant Staphylococcus aureus CL 1990
[7] = molecular target: T1, Dipeptidase 1 (Sus scrofa) (UniProt P22412); assay: DHP-I susceptibility relative to imipenem
T1 sequence (whole entry): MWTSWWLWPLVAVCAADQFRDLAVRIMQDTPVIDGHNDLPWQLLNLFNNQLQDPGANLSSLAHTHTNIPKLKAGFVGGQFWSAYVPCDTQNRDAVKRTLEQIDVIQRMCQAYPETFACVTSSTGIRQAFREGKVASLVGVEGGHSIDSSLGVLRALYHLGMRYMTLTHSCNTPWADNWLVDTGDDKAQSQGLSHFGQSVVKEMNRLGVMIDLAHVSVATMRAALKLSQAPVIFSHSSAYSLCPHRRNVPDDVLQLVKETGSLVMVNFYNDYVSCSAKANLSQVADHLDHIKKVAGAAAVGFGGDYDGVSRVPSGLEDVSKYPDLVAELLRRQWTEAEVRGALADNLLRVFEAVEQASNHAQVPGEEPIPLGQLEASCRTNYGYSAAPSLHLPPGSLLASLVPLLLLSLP

[8] = system: Staphylococcus aureus; assay: Compound was evaluated for anti-methicillin-resistant activity against methicillin-resistant Staphylococcus aureus CL 714
[9] = system: Staphylococcus aureus; assay: Compound was evaluated for anti-methicillin-resistant activity against methicillin-resistant Staphylococcus aureus CL 3031
[10] = system: Staphylococcus sp.; assay: Compound was evaluated for anti-methicillin-resistant activity against methicillin-resistant coagulase-negative Staphylococci
[11] = system: Staphylococcus sp.; assay: Compound was evaluated for anti-methicillin-resistant activity against methicillin-resistant coagulase-negative Staphylococci CL 171
[12] = system: Enterococcus sp.; assay: Relative potency was calculated against Enterococcus species. (3) by dividing the species index of Imipenem by the species index of the test compound
[13] = system: Staphylococcus aureus; assay: Compound was evaluated for anti-methicillin-resistant activity against methicillin-resistant Staphylococcus aureus CL 1983
[14] = system: Staphylococcus aureus; assay: Compound was evaluated for anti-methicillin-resistant activity against methicillin-resistant Staphylococcus aureus CL 1991
[15] = system: Klebsiella sp.; assay: Relative potency was calculated against Klebsiella species. (5) by dividing the species index of Imipenem by the species index of the test compound
[16] = system: Staphylococcus sp.; assay: Compound was evaluated for anti-methicillin-resistant activity against methicillin-resistant coagulase-negative Staphylococci CL 202
[17] = system: Staphylococcus aureus; assay: Compound was evaluated for anti-methicillin-resistant activity against methicillin-resistant Staphylococcus aureus CL 3025
[18] = system: Staphylococcus aureus; assay: Compound was evaluated for anti-methicillin-resistant activity against methicillin-resistant Staphylococcus aureus CL 1989
[19] = system: Enterobacter sp.; assay: Relative potency was calculated against Enterobacter species. (6) by dividing the species index of Imipenem by the species index of the test compound
[20] = system: Escherichia coli; assay: Relative potency was calculated against Escherichia coli (5) by dividing the species index of Imipenem by the species index of the test compound
[21] = system: Serratia; assay: Relative potency was calculated against Serratia species. (2) by dividing the species index of Imipenem by the species index of the test compound
[22] = system: Staphylococcus sp.; assay: Compound was evaluated for anti-methicillin-resistant activity against methicillin-resistant coagulase-negative Staphylococci CL 227
[23] = system: Staphylococcus aureus; assay: Relative potency was calculated against Methicillin-resistant Staphylococcus aureus (1) by dividing the species index of Imipenem by the species index of the test compound
[24] = system: Staphylococcus aureus; assay: Compound was evaluated for anti-methicillin-resistant activity against methicillin-resistant Staphylococcus aureus CL 792
[25] = system: Staphylococcus aureus; assay: Compound was evaluated for anti-methicillin-resistant activity against methicillin-resistant Staphylococcus aureus CL 1985
[26] = system: Staphylococcus aureus; assay: Relative potency was calculated against Methicillin-sensitive Staphylococcus aureus (4) by dividing the species index of Imipenem by the species index of the test compound
[27] = system: Pseudomonas aeruginosa; assay: Relative potency was calculated against Pseudomonas aeruginosa (5 ) by dividing the species index of Imipenem by the species index of the test compound
[28] = system: Staphylococcus sp.; assay: Compound was evaluated for anti-methicillin-resistant activity against methicillin-resistant coagulase-negative Staphylococci CL 546
[29] = system: Klebsiella sp.; assay: Antibacterial activity against Klebsiella species. (5)
[30] = system: Proteus; assay: Antibacterial activity against Proteus species. (5)
[31] = system: Serratia; assay: Antibacterial activity against Serratia species. (2)
[32] = system: Staphylococcus aureus; assay: Antibacterial activity against Methicillin-sensitive Staphylococcus aureus (4)
[33] = system: Enterococcus sp.; assay: Antibacterial activity against Enterococcus species. (3)
[34] = system: Enterobacter sp.; assay: Antibacterial activity against Enterobacter species. (6)
[35] = system: Escherichia coli; assay: Antibacterial activity against Escherichia coli (5)
[36] = system: Pseudomonas aeruginosa; assay: Antibacterial activity against Pseudomonas aeruginosa (5 )
[37] = system: Staphylococcus aureus; assay: Antibacterial activity against Methicillin-resistant Staphylococcus aureus (1)

With `C[C@@H](O)[C@H]1C(=O)N2C(C(=O)[O-])=C(c3cccc(-c4ccc(C[n+]5ccccc5N)cc4)c3)C[C@H]12` the MIC50 [1] was 1 µg/mL (≈ 2.2 µM), the MIC90 [1] was 2 µg/mL (≈ 4.39 µM) and the MIC [2] was 2 µg/mL (≈ 4.39 µM). For the same compound, the MIC [3] was 2 µg/mL (≈ 4.39 µM), the Relative potency [4] was 0.38 and the MIC [5] was 1 µg/mL (≈ 2.2 µM). For the same compound, the MIC [6] was 1 µg/mL (≈ 2.2 µM), the Susceptibility [7] was 0.04 and the MIC [8] was 2 µg/mL (≈ 4.39 µM). For the same compound, the MIC [9] was 2 µg/mL (≈ 4.39 µM), the MIC50 [10] was 2 µg/mL (≈ 4.39 µM) and the MIC90 [10] was 4 µg/mL (≈ 8.78 µM). It also gave an MIC [11] of 4 µg/mL (≈ 8.78 µM), a Relative potency [12] of 6.2 and an MIC [13] of 0.5 µg/mL (≈ 1.1 µM). The MIC [14] was 1 µg/mL (≈ 2.2 µM), the Relative potency [15] was 0.04 and the MIC [16] was 2 µg/mL (≈ 4.39 µM). The MIC [17] was 1 µg/mL (≈ 2.2 µM), the MIC [18] was 0.5 µg/mL (≈ 1.1 µM) and the Relative potency [19] was 0.04. It also gave a Relative potency [20] of 0.11, a Relative potency [21] of 0.11 and an MIC [22] of 2 µg/mL (≈ 4.39 µM). For the same compound, the Relative potency [23] was 154, the MIC [24] was 1 µg/mL (≈ 2.2 µM) and the MIC [25] was 1 µg/mL (≈ 2.2 µM). For the same compound, the Relative potency [26] was 0.43, the Relative potency [27] was 0.01 and the MIC [28] was 2 µg/mL (≈ 4.39 µM).

`C[C@@H](O)[C@H]1C(=O)N2C(C(=O)[O-])=C(c3cccc(C[n+]4ccccc4N)c3)C[C@H]12` was tested, and the Relative potency [4] was 4.2, the Susceptibility [7] was 0.11 and the Relative potency [12] was 12.9. For the same compound, the Relative potency [15] was 1.1, the Relative potency [19] was 3 and the Relative potency [20] was 1.7. For the same compound, the Relative potency [21] was 4.4, the Relative potency [23] was 2 and the Relative potency [26] was 0.5. It also gave a Relative potency [27] of 0.02.

`CN[C@H](CC(C)C)C(=O)N[C@H]1C(=O)N[C@@H](CC(N)=O)C(=O)N[C@H]2C(=O)N[C@H]3C(=O)N[C@H](C(=O)N[C@H](C(=O)O)c4cc(O)cc(O)c4-c4cc3ccc4O)[C@H](O)c3ccc(c(Cl)c3)Oc3cc2cc(c3O[C@@H]2O[C@H](CO)[C@@H](O)[C@H](O)[C@H]2O[C@H]2C[C@](C)(N)[C@H](O)[C@H](C)O2)Oc2ccc(cc2Cl)[C@H]1O` [VANCOMYCIN] gave an MIC50 [1] of 1 µg/mL (≈ 0.69 µM), an MIC90 [1] of 2 µg/mL (≈ 1.38 µM) and an MIC50 [10] of 4 µg/mL (≈ 2.76 µM). For the same compound, the MIC90 [10] was 8 µg/mL (≈ 5.52 µM), the MIC [11] was 8 µg/mL (≈ 5.52 µM) and the MIC [16] was 8 µg/mL (≈ 5.52 µM). It also gave an MIC [22] of 2 µg/mL (≈ 1.38 µM) and an MIC [28] of 4 µg/mL (≈ 2.76 µM).

With `C[C@@H](O)[C@H]1C(=O)N2C(C(=O)[O-])=C(c3ccc(-c4ccc(C[n+]5ccc(N(C)C)cc5)cc4)cc3)C[C@H]12` the Relative potency [4] was 0.44, the Susceptibility [7] was 0.46 and the Relative potency [12] was 2. It also gave a Relative potency [15] of 0.04, a Relative potency [19] of 0.12 and a Relative potency [20] of 0.31. For the same compound, the Relative potency [21] was 0.26, the Relative potency [23] was 3.9 and the Relative potency [26] was 0.16. It also gave a Relative potency [27] of 0.013.

For `C[C@@H](O)[C@H]1C(=O)N2C(C(=O)O)=C(SCCNC=N)C[C@H]12` [IMIPENEM ANHYDROUS], the MIC50 [1] was 4 µg/mL (≈ 13.4 µM), the MIC90 [1] was 64 µg/mL (≈ 214 µM) and the MIC [29] was 0.29 µg/mL (≈ 0.969 µM). The MIC [2] was 64 µg/mL (≈ 214 µM), the MIC [3] was 128 µg/mL (≈ 428 µM) and the MIC [5] was 16 µg/mL (≈ 53.4 µM). For the same compound, the MIC [30] was 0.78 µg/mL (≈ 2.61 µM), the MIC [6] was 4 µg/mL (≈ 13.4 µM) and the Susceptibility [7] was 1. It also gave an MIC [8] of 32 µg/mL (≈ 107 µM), an MIC [9] of 32 µg/mL (≈ 107 µM) and an MIC50 [10] of 64 µg/mL (≈ 214 µM). It also gave an MIC90 [10] greater than 128 µg/mL, an MIC [11] greater than 128 µg/mL and an MIC [13] of 1 µg/mL (≈ 3.34 µM). It also gave an MIC [14] of 1 µg/mL (≈ 3.34 µM), an MIC [16] greater than 128 µg/mL and an MIC [17] of 2 µg/mL (≈ 6.68 µM). The MIC [18] was 2 µg/mL (≈ 6.68 µM), the MIC [22] was 64 µg/mL (≈ 214 µM) and the MIC [24] was 32 µg/mL (≈ 107 µM). For the same compound, the MIC [25] was 1 µg/mL (≈ 3.34 µM), the MIC [31] was 0.29 µg/mL (≈ 0.969 µM) and the MIC [32] was 0.01 µg/mL (≈ 0.0334 µM). The MIC [33] was 1.8 µg/mL (≈ 6.01 µM), the MIC [34] was 0.18 µg/mL (≈ 0.601 µM) and the MIC [35] was 0.19 µg/mL (≈ 0.635 µM). For the same compound, the MIC [36] was 0.36 µg/mL (≈ 1.2 µM), the MIC [37] was 33 µg/mL (≈ 110 µM) and the MIC [28] was 64 µg/mL (≈ 214 µM).

Work on `COc1cccc(OC)c1C(=O)N[C@@H]1C(=O)N2[C@@H]1SC(C)(C)[C@@H]2C(=O)[O-].[Na+]` yielded an MIC50 [1] of 128 µg/mL, an MIC90 [1] of 512 µg/mL and an MIC [2] of 512 µg/mL. The MIC [3] was greater than 512 µg/mL, the MIC [5] was 128 µg/mL and the MIC [6] was 128 µg/mL. For the same compound, the MIC [8] was 512 µg/mL, the MIC [9] was 256 µg/mL and the MIC50 [10] was greater than 512 µg/mL. The MIC90 [10] was greater than 512 µg/mL, the MIC [11] was greater than 512 µg/mL and the MIC [13] was 64 µg/mL. It also gave an MIC [14] of 64 µg/mL, an MIC [16] greater than 512 µg/mL and an MIC [17] of 64 µg/mL. The MIC [18] was 64 µg/mL, the MIC [22] was 512 µg/mL and the MIC [24] was 512 µg/mL. For the same compound, the MIC [25] was 64 µg/mL and the MIC [28] was greater than 512 µg/mL.
